Results from patent US9474755B2, “GLP-1 receptor modulators” (Receptos, Inc., priority 2014, dated 2016).

The compounds below were run against T1, GLP-1R (Homo sapiens, UniProt P43220) (assay: EC20 GLP-1(9-36) PAM cAMP Assay: dose response of compound in the presence of fixed concentration of GLP-1(9-36)). Details: GLP-1R CRE-bla CHO-K1 cells, in presence of fixed concentration of GLP-1(9-36), 30 min at 37° C.
T1 construct: host or cells: CRE-bla CHO-K1
Format: cell-based
Procedure: EC20 GLP-1(9-36) PAM cAMP Assay: Dose Response of Compound in the Presence of Fixed Concentration of GLP-1 (9-36).
GLP-1R CRE-bla CHO-K1 cells cultured in growth medium (DMEM-High glucose, 10% dialyzed FBS, 0.1 mM NEAA, 25 mM Hepes, 100 U/mL penicillin/100 μg/mL streptomycin, 5 μg/mL Blasticidin, 600 μg/mL Hygromycin) were trypsinized and plated in suspension into 384 well white flat bottom plates at 5000 cells/well in 12 μL assay buffer (Hanks Balanced Salt solution, 10 mM Hepes, 0.1% BSA, 10 pH 7.4). A 5× compound dose response curve (12-point) was generated in assay buffer containing 1.5 mM IBMX, 4% DMSO. GLP-1(9-36) was diluted to 4.2 μM in assay buffer containing 1.5 mM IBMX and 4% DMSO. The 5× compound dose response was added (3 μL), followed by 0.5 μL of GLP-1(9-36) and cells were incubated for 30 min at 37° C. Direct detection of cAMP was carried out using DiscoveRx HitHunter cAMP kit according to manufacturer's instructions and luminescence was read using a SpectraMax M5 plate reader. Luminescence was converted to total cAMP using a cAMP standard curve and data was analyzed by non-linear regression to determine the EC50 and Emax.

T1 sequence (P43220 24-463): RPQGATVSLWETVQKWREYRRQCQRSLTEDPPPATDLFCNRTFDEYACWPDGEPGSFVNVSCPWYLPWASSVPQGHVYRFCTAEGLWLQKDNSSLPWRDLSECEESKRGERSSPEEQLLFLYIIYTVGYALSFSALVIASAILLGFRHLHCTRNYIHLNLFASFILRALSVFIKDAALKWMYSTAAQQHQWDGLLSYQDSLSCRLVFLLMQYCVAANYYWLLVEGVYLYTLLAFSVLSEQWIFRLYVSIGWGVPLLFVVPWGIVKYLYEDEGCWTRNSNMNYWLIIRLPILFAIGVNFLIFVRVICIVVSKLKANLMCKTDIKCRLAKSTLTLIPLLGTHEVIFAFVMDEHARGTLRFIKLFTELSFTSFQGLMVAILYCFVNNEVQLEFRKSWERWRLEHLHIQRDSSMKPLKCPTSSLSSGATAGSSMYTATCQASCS
T1 sequence (P01275 100-127 partner limits assumed): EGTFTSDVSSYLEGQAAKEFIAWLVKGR

SMILES	EC50
C[C@@H](NC(=O)[C@H](Cc1ccc(-c2ncc(C3=CCC(C(C)(C)C)CC3)cn2)cc1)NC(=O)c1ccc(C(C)(C)C)s1)C(=O)O (some centres unmarked) [Compound 56]	< 500 nM
C[C@@H](NC(=O)[C@H](Cc1ccc(-c2ncc(C3=CCC(C)(C)CC3)cn2)cc1)NC(=O)c1ccc(C(C)(C)C)s1)C(=O)O [Compound 57]	500 to 2500 nM
C[C@@H](NC(=O)[C@H](Cc1ccc(-c2ncc(C3=CC4CC[C@]3(C)C4(C)C)cn2)cc1)NC(=O)c1ccc(C(C)(C)C)s1)C(=O)O [Compound 58]	2500 to 5000 nM
C[C@@H](NC(=O)[C@H](Cc1ccc(-c2ncc(C3=CC(C)(C)CC(C)(C)C3)cn2)cc1)NC(=O)c1ccc(C(C)(C)C)s1)C(=O)O [Compound 59]	< 500 nM
C[C@@H](NC(=O)[C@H](Cc1ccc(-c2ncc(C3=CCC(C)(C)C=C3)cn2)cc1)NC(=O)c1ccc(C(C)(C)C)s1)C(=O)O [Compound 60]	500 to 2500 nM
CC(=O)C1CC=C(c2cnc(-c3ccc(C[C@H](NC(=O)c4ccc(C(C)(C)C)s4)C(=O)N[C@H](C)C(=O)O)cc3)nc2)CC1 (some centres unmarked) [Compound 61]	< 500 nM
COC(=O)C1CC=C(c2cnc(-c3ccc(C[C@H](NC(=O)c4ccc(C(C)(C)C)s4)C(=O)N[C@H](C)C(=O)O)cc3)nc2)CC1 (some centres unmarked) [Compound 62]	< 500 nM
C[C@@H](NC(=O)[C@H](Cc1ccc(-c2ncc(C3=CCCC3)cn2)cc1)NC(=O)c1ccc(C(C)(C)C)s1)C(=O)O [Compound 63]	500 to 2500 nM
C[C@@H](NC(=O)[C@H](Cc1ccc(-c2ncc(C3=CCC(NC(=O)OC(C)(C)C)CC3)cn2)cc1)NC(=O)c1ccc(C(C)(C)C)s1)C(=O)O (some centres unmarked) [Compound 64]	2500 to 5000 nM
C[C@@H](NC(=O)[C@H](Cc1ccc(-c2ncc(C3=CCC(C(F)(F)F)CC3)cn2)cc1)NC(=O)c1ccc(C(C)(C)C)s1)C(=O)O (some centres unmarked) [Compound 65]	500 to 2500 nM
C[C@@H](NC(=O)[C@H](Cc1ccc(-c2ncc(C3=CCC4(CC3)OCCO4)cn2)cc1)NC(=O)c1ccc(C(C)(C)C)s1)C(=O)O [Compound 66]	2500 to 5000 nM
CCCC1CCC(C2CCC(c3cnc(-c4ccc(C[C@H](NC(=O)c5ccc(C(C)(C)C)s5)C(=O)N[C@H](C)C(=O)O)cc4)nc3)CC2)CC1 (some centres unmarked) [Compound 67]	< 500 nM
C[C@@H](NC(=O)[C@H](Cc1ccc(-c2ncc(C3=CCCC(NC(=O)OC(C)(C)C)C3)cn2)cc1)NC(=O)c1ccc(C(C)(C)C)s1)C(=O)O (some centres unmarked) [Compound 69]	2500 to 5000 nM
CCC1CCC(C2CC=C(c3cnc(-c4ccc(C[C@H](NC(=O)c5ccc(C(C)(C)C)s5)C(=O)N[C@H](C)C(=O)O)cc4)nc3)CC2)CC1 (some centres unmarked) [Compound 70]	< 500 nM
CCCC1CCC(C2CC=C(c3cnc(-c4ccc(C[C@H](NC(=O)c5ccc(C(C)(C)C)s5)C(=O)NCCC(=O)O)cc4)nc3)CC2)CC1 (some centres unmarked) [Compound 71]	< 500 nM
CCCC1CCC(C2CC=C(c3cnc(-c4ccc(C[C@H](NC(=O)c5ccc(C(C)(C)C)s5)C(=O)N[C@@H](CCN)C(=O)O)cc4)nc3)CC2)CC1 (some centres unmarked) [Compound 72]	2500 to 5000 nM
CCCC1CCC(C2CC=C(c3cnc(-c4ccc(C[C@H](NC(=O)c5ccc(C(C)(C)C)s5)C(=O)N[C@@H](CO)C(=O)O)cc4)nc3)CC2)CC1 (some centres unmarked) [Compound 73]	< 500 nM
CCCC1CCC(C2CC=C(c3cnc(-c4ccc(C[C@H](NC(=O)c5ccc(C(C)(C)C)s5)C(=O)N[C@H](C(=O)O)[C@@H](C)O)cc4)nc3)CC2)CC1 (some centres unmarked) [Compound 74]	< 500 nM
CCCC1CCC(C2CC=C(c3cnc(-c4ccc(C[C@H](NC(=O)c5ccc(C(C)(C)C)s5)C(=O)N[C@H](C(=O)O)C(C)C)cc4)nc3)CC2)CC1 (some centres unmarked) [Compound 75]	500 to 2500 nM
CC(C)(C)c1ccc(C(=O)N[C@@H](Cc2ccc(-c3ncc(C4=CCC(C5CCCCC5)CC4)cn3)cc2)C(=O)N2CC(C(=O)O)C2)s1 (some centres unmarked) [Compound 77]	< 500 nM
CCCC1CCC(C2CC=C(c3cnc(-c4ccc(C[C@H](NC(=O)c5ccc(C(C)(C)C)s5)C(=O)N[C@H](Cc5cnc[nH]5)C(=O)O)cc4)nc3)CC2)CC1 (some centres unmarked) [Compound 78]	500 to 2500 nM
CCCC1CCC(C2CC=C(c3cnc(-c4ccc(C[C@H](NC(=O)c5ccc(C(C)(C)C)s5)C(=O)S(C)(=O)=O)cc4)nc3)CC2)CC1 (some centres unmarked) [Compound 79]	< 500 nM
CCCC1CCC(C2CC=C(c3cnc(-c4ccc(C[C@H](NC(=O)c5ccc(C(C)(C)C)s5)C(=O)N5C6CCC5C(C(=O)O)C6)cc4)nc3)CC2)CC1 (some centres unmarked) [Compound 80]	500 to 2500 nM
CCCC1CCC(C2CC=C(c3cnc(-c4ccc(C[C@@H](NC(=O)c5ccc(C(C)(C)C)s5)C(=O)N5CC(C(=O)O)C5)cc4)nc3)CC2)CC1 (stereo partly drawn) [Compound 81, 1-((2R)-2-(5-(tert-butyl)thiophene-2-carboxamido)-3-(4-(5-(4′-propyl-[1,1′-bi(cyclohexan)]-3-en-4-yl)pyrimidin-2-yl)phenyl)propanoyl) azetidine-3-carboxylic acid]	500 to 2500 nM

SMILES	EC50
CCO[C@H]1CC[C@@H](C2CC=C(c3cnc(-c4ccc(C[C@H](NC(=O)c5ccc(C(C)(C)C)s5)C(=O)N5CC(C(=O)O)C5)cc4)nc3)CC2)CC1 (some centres unmarked) [Compound 83]	< 500 nM
CCO[C@H]1CC[C@H](C2CC=C(c3cnc(-c4ccc(C[C@H](NC(=O)c5ccc(C(C)(C)C)s5)C(=O)N5CC(C(=O)O)C5)cc4)nc3)CC2)CC1 (some centres unmarked) [Compound 84]	< 500 nM
CCCC1CCC(C2CC=C(c3cnc(-c4ccc(CC(NC(=O)c5ccc(C(C)(C)C)s5)C(=O)N5CC(C(=O)O)C5)cc4)nc3)CC2)CC1C (centres unmarked) [Compound 85]	< 500 nM
CC(C)CC1CCC(C2CC=C(c3cnc(-c4ccc(C[C@H](NC(=O)c5ccc(C(C)(C)C)s5)C(=O)N5CC(C(=O)O)C5)cc4)nc3)CC2)CC1 (some centres unmarked) [Compound 86]	< 500 nM
CCC[C@H]1CC[C@H](C2CC=C(c3cnc(-c4ccc(C[C@H](NC(=O)c5ccc(C(C)(C)C)s5)C(=O)N5CC(C(=O)O)C5)cc4)nc3)C(C)C2)CC1 (some centres unmarked) [Compound 87]	< 500 nM
COCC1CCC(C2CC=C(c3cnc(-c4ccc(CC(NC(=O)c5ccc(C(C)(C)C)s5)C(=O)N5CC(C(=O)O)C5)cc4)nc3)CC2)CC1 (centres unmarked) [Compound 88]	< 500 nM
CCC[C@H]1CC[C@H](C2CCC(c3cnc(-c4ccc(C[C@H](NC(=O)c5ccc(C(C)(C)C)s5)C(=O)N5CC(C(=O)O)C5)cc4)nc3)=C(C)C2)CC1 (some centres unmarked) [Compound 89]	< 500 nM
CC1(C)CCC(C2CC=C(c3cnc(-c4ccc(C[C@H](NC(=O)c5ccc(C(C)(C)C)s5)C(=O)N5CC(C(=O)O)C5)cc4)nc3)CC2)CC1 (some centres unmarked) [Compound 90]	< 500 nM
CCc1ccc(C(=O)N[C@@H](Cc2ccc(-c3ncc(C4=CCC([C@H]5CC[C@H](C)CC5)CC4)cn3)cc2)C(=O)N2CC(C(=O)O)C2)s1 (some centres unmarked) [Compound 91]	< 500 nM
CCc1ccc(C(=O)N[C@@H](Cc2ccc(-c3ncc(C4=CCC(C5CCC(C)(C)CC5)CC4)cn3)cc2)C(=O)N2CC(C(=O)O)C2)s1 (some centres unmarked) [Compound 92]	< 500 nM
CCc1ccc(C(=O)N[C@@H](Cc2ccc(-c3ncc(C4=CCC([C@H]5CC[C@H](CC)CC5)CC4)cn3)cc2)C(=O)N2CC(C(=O)O)C2)s1 (some centres unmarked) [Compound 93]	< 500 nM
CC[C@H]1CC[C@H](C2CC=C(c3cnc(-c4ccc(C[C@H](NC(=O)c5ccc(C(C)(C)C)cc5)C(=O)N5CC(C(=O)O)C5)cc4)nc3)CC2)CC1 (some centres unmarked) [Compound 94]	< 500 nM
CC[C@H]1CC[C@H](C2CC=C(c3cnc(-c4ccc(C[C@H](NC(=O)c5ccc(OC(C)(C)C)cc5)C(=O)N5CC(C(=O)O)C5)cc4)nc3)CC2)CC1 (some centres unmarked) [Compound 95]	500 to 2500 nM
CC[C@H]1CC[C@H](C2CC=C(c3cnc(-c4ccc(C[C@H](NC(=O)c5ccc(CC(C)C)s5)C(=O)N5CC(C(=O)O)C5)cc4)nc3)CC2)CC1 (some centres unmarked) [Compound 96]	< 500 nM
CC[C@H]1CC[C@H](C2CC=C(c3cnc(-c4ccc(C[C@H](NC(=O)c5ccc(C6CC6)s5)C(=O)N5CC(C(=O)O)C5)cc4)nc3)CC2)CC1 (some centres unmarked) [Compound 97]	< 500 nM
CC[C@H]1CC[C@H](C2CC=C(c3cnc(-c4ccc(C[C@H](NC(=O)c5ccc(C(F)(F)F)s5)C(=O)N5CC(C(=O)O)C5)cc4)nc3)CC2)CC1 (some centres unmarked) [Compound 98]	< 500 nM
CC[C@H]1CC[C@H](C2CC=C(c3cnc(-c4ccc(C[C@H](NC(=O)c5ccccc5)C(=O)N5CC(C(=O)O)C5)cc4)nc3)CC2)CC1 (some centres unmarked) [Compound 99]	500 to 2500 nM
CC[C@H]1CC[C@H](C2CC=C(c3cnc(-c4ccc(C[C@H](NC(=O)c5ccc(C(F)(F)F)cc5)C(=O)N5CC(C(=O)O)C5)cc4)nc3)CC2)CC1 (some centres unmarked) [Compound 100]	< 500 nM
CCC(C)(C)c1ccc(C(=O)N[C@@H](Cc2ccc(-c3ncc(C4=CCC([C@H]5CC[C@H](CC)CC5)CC4)cn3)cc2)C(=O)N2CC(C(=O)O)C2)cc1 (some centres unmarked) [Compound 101]	< 500 nM
CC[C@H]1CC[C@H](C2CC=C(c3cnc(-c4ccc(C[C@H](NC(=O)c5ccc(CC(C)C)cc5)C(=O)N5CC(C(=O)O)C5)cc4)nc3)CC2)CC1 (some centres unmarked) [Compound 102]	500 to 2500 nM
CC[C@H]1CC[C@H](C2CC=C(c3cnc(-c4ccc(C[C@H](NC(=O)c5ccc(C(C)C)s5)C(=O)N5CC(C(=O)O)C5)cc4)nc3)CC2)CC1 (some centres unmarked) [Compound 103]	< 500 nM
CC[C@H]1CC[C@H](C2CC=C(c3cnc(-c4ccc(C[C@H](NC(=O)c5ccc(C6CC6)cc5)C(=O)N5CC(C(=O)O)C5)cc4)nc3)CC2)CC1 (some centres unmarked) [Compound 104]	< 500 nM
CC[C@H]1CC[C@H](C2CC=C(c3cnc(-c4ccc(C[C@H](NC(=O)c5ccc(C(C)(C)C)s5)C(=O)N5CCC[C@H]5C(=O)O)cc4)nc3)CC2)CC1 (some centres unmarked) [Compound 105]	< 500 nM
